For 22 compounds, IC50 results are on record in patent publication US10065941B2, “Aminotriazine derivative and pharmaceutical composition comprising the same” (Shionogi & Co., Ltd., priority 2013, dated 2018).

human P2X3 receptor, sequence (P56373 whole entry): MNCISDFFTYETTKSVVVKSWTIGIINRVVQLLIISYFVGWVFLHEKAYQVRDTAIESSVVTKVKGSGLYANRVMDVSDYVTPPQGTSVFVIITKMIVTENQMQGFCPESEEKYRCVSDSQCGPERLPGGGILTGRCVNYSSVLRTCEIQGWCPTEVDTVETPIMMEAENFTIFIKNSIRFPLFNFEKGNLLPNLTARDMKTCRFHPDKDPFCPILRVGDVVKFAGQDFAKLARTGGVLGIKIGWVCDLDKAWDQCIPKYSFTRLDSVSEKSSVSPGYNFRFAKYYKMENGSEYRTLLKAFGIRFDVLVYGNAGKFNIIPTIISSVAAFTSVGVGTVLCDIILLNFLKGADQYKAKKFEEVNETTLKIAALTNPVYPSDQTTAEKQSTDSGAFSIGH

For the experiment, the target named is human P2X3 receptor (Homo sapiens (Human), UniProt P56373). The experiment can be described thus: Evaluation of human P2X3 receptor inhibitory activity (Test Example 1). The note with it: C6BU-1 cell transfected with human P2X3 receptor gene, FLIPR 384. It is filed as cell-based. As for the experimental part:
Stably expressing cell line (C6BU-1 cell transfected with human P2X3 receptor gene (GenBank accession number Y07683) was used. The cells were seeded in a 384-well PDL-coated microtiter plate at a concentration of 3000 cells/well and cultured in the medium (8.3% fetal bovine serum, 8.3% horse serum, and 1% antibiotic and antifungal in DMEM) for one day at 37° C. under 5% carbon dioxide atmosphere. The medium was replaced with 4 μM Fluo-3-AM solution (20 mM HEPES, 137 mM NaCl, 2.7 mM KCl, 0.9 mM MgCl2, 5.0 mM CaCl2, 5.6 mM D-glucose, 2.5 mM probenecid, 0.5% BSA, and 0.04% Pluronic F-127, pH 7.5) and incubated at 37° C. under 5% dioxide carbon atmosphere for one hour. The plate was washed with washing buffer (20 mM HEPES, 137 mM NaCl, 2.7 mM KCl, 0.9 mM MgCl2, 5.0 mM CaCl2, 5.6 mM D-glucose, 2.5 mM probenecid, pH7.5), and each well was added with 20 μL of the washing buffer. The plate was placed in High-Throughput Screening System FLIPR 384 (Molecular Device Co.). Measurement of fluorescence intensity by FLIPR 384 was started, and 20 μL of DMSO solutions containing different concentrations of the test compound as prepared by dilution with dilution buffer (20 mM HEPES, 137 mM NaCl, 2.7 mM KCl, 0.9 mM MgCl2, 5.0 mM CaCl2, 5.6 mM D-glucose, 2.5 mM probenecid, 0.1% Pluronic F-127, pH7.5) were dispensed to each well through the built-in automatic dispenser. Five minutes after, 150 nM ATP solution (25 μL) prepared by dilution with the dilution buffer was dispensed through the built-in automatic dispenser, and the measurement of fluorescence intensity was continued for 4 min. For each well, the specific maximum fluorescence intensity was calculated as the ratio of the maximum fluorescence intensity after addition of the ATP solution to the fluorescence intensity at the starting of the measurement. […] The specific maximum fluorescence intensity and IC50 were calculated using Spotfire (Science & Technology Systems, Inc.)
The IC50 is the concentration that inhibits the measured activity by half. Read a low IC50 as greater potency in that assay. Regarding `COC(=O)[C@H](C)[C@H](C)n1c(=O)[nH]/c(=N\c2ccc(Oc3ccc(F)cn3)cc2)n(Cc2ccc(C)cc2)c1=O` [Compound I-103], half-maximal inhibition (IC50) required 7 nM.

Turning to `COC(=O)[C@H](C)[C@H](C)n1c(=O)[nH]/c(=N\c2ccc(Oc3cccc(F)n3)cc2)n(Cc2ccc(C)cc2)c1=O` [Compound I-104], the IC50 was 5 nM.

`Cc1ccc(Cn2c(=O)n([C@@H](C)[C@@H](C)C(=O)O)c(=O)[nH]/c2=N\c2ccc(Oc3ccc(F)cn3)cc2)cc1` [Compound I-105] had an IC50 of 7 nM.

`Cc1ccc(Cn2c(=O)n([C@@H](C)[C@@H](C)C(=O)O)c(=O)[nH]/c2=N\c2ccc(Oc3cccc(F)n3)cc2)cc1` [Compound I-106] returned an IC50 of 6 nM.

`COC(=O)[C@H](C)[C@H](C)n1c(=O)[nH]/c(=N\c2ccc(Oc3cc(C)ccn3)cc2)n(Cc2ccc(Cl)cc2)c1=O` [Compound I-107] gave an IC50 of 31 nM.

`COC(=O)[C@@H](C)Cn1c(=O)[nH]/c(=N\c2ccc(Oc3ccc(C)cn3)cc2)n(Cc2ccc(C)cc2)c1=O` [Compound I-108] showed an IC50 of 4 nM. This IC50 is about 7.8-fold lower than that of the compound before.

As for `COC(=O)[C@H](C)[C@H](C)n1c(=O)[nH]/c(=N\c2ccc(Oc3ccc(C)cn3)cc2)n(Cc2ccc(C)cc2)c1=O` [Compound I-109], inhibition was half-maximal at 6 nM (IC50).

`COC(=O)C(C)(C)Cn1c(=O)[nH]/c(=N\c2ccc(Oc3ccc(C)cn3)cc2)n(Cc2ccc(C)cc2)c1=O` [Compound I-110] registered an IC50 of 4 nM.

`Cc1ccnc(Oc2ccc(/N=c3\[nH]c(=O)n([C@@H](C)[C@@H](C)C(=O)O)c(=O)n3Cc3ccc(Cl)cc3)cc2)c1` [Compound I-111] registered a half-maximal inhibitory concentration (IC50) of 9 nM. Compared with the last compound, the IC50 is about 2.2-fold higher.

With `Cc1ccc(Cn2c(=O)n(C[C@H](C)C(=O)O)c(=O)[nH]/c2=N\c2ccc(Oc3ccc(C)cn3)cc2)cc1` [Compound I-112], the IC50 was 4 nM. This IC50 lies about 2.2-fold lower than the previous one.

Compound `Cc1ccc(Cn2c(=O)n([C@@H](C)[C@@H](C)C(=O)O)c(=O)[nH]/c2=N\c2ccc(Oc3ccc(C)cn3)cc2)cc1` [Compound I-113] showed an IC50 of 5 nM. This IC50 and that of the compound before are within 1.5-fold of each other.

In turn, `Cc1ccc(Cn2c(=O)n(CC(C)(C)C(=O)O)c(=O)[nH]/c2=N\c2ccc(Oc3ccc(C)cn3)cc2)cc1` [Compound I-114] yielded an IC50 of 6 nM.

Regarding `COC(=O)[C@@H](C)Cn1c(=O)[nH]/c(=N\c2ccc(Oc3cccc(Cl)n3)cc2)n(Cc2ccc(C)cc2)c1=O` [Compound I-115], the IC50 came to 6 nM.

In the case of `COC(=O)C(C)(C)Cn1c(=O)[nH]/c(=N\c2ccc(Oc3cccc(Cl)n3)cc2)n(Cc2ccc(C)cc2)c1=O` [Compound I-116], half-maximal inhibition (IC50) required 7 nM.

As to `Cc1ccc(Cn2c(=O)n(C[C@H](C)C(=O)O)c(=O)[nH]/c2=N\c2ccc(Oc3ncccc3Cl)cc2)cc1` [Compound I-117], inhibition was half-maximal at 5 nM (IC50).

Consider `Cc1ccc(Cn2c(=O)n(CC(C)(C)C(=O)O)c(=O)[nH]/c2=N\c2ccc(Oc3ncccc3Cl)cc2)cc1` [Compound I-118], for which it took 9 nM to reach half-maximal inhibition (IC50).

`Cc1ccc(Cn2c(=O)n(C[C@H](C)C(=O)O)c(=O)[nH]/c2=N\c2ccc(Oc3cccc(Cl)n3)cc2)cc1` [Compound I-119] showed an IC50 of 6 nM. Against the preceding compound, the IC50 is about 1.5-fold lower.

Regarding `COC(=O)[C@H](C)[C@H](C)n1c(=O)[nH]/c(=N\c2ccc(Oc3ccc(Cl)cn3)cc2)n(Cc2ccc(C)cc2)c1=O` [Compound I-120], the IC50 was found to be 9 nM.

On to `COC(=O)[C@H](Cn1c(=O)[nH]/c(=N\c2ccc(Oc3ccc(F)cn3)cc2)n(Cc2ccc(Cl)cc2)c1=O)OC` [Compound I-121], for which inhibition was half-maximal at 6 nM (IC50).

`COC(=O)[C@H](Cn1c(=O)[nH]/c(=N\c2ccc(Oc3cccc(F)n3)cc2)n(Cc2ccc(Cl)cc2)c1=O)OC` [Compound I-122] yielded an IC50 of 4 nM.

Compound `Cc1ccc(Cn2c(=O)n([C@@H](C)[C@@H](C)C(=O)O)c(=O)[nH]/c2=N\c2ccc(Oc3ccc(Cl)cn3)cc2)cc1` [Compound I-123] came in with an IC50 of 5 nM.

On to `CO[C@@H](Cn1c(=O)[nH]/c(=N\c2ccc(Oc3ccc(F)cn3)cc2)n(Cc2ccc(Cl)cc2)c1=O)C(=O)O` [Compound I-124], for which the IC50 was 5 nM.
